Assay [1] has as its system mitochondrial complex I and IV. As to the kind of experiment: Mitochondrial complex I/IV activity in HT-treated luminal breast cancer cell lines. The assay is classed as cell-based, human. As to conditions: fulvestrant; FIG. 11e. The source says:
(Panel a), Representative bright field images of MCF7 po cells±CAF-EVs (3×10^9/weekly for 40 days). Bar graph of number of MS is also reported at the endpoint of the experiment (40 days). (Panel b), HT led to decreased expression of mRNA involved in protein synthesis and OXPHOS signaling with z score and -log (p-values)- as determined by Ingenuity analysis of microarray data from RNA isolated FIG. 5a (MCF7), single P values are also reported. (Panel c), OXPHOS potential determined as changes of respiration rate under mitochondrial stressors by seahorse technology (oligomycin 1 μM, rotenone 100 nM) in cancer cells isolated from FIG. 5b (MCF7, PT1). […] (Panel e), Mitochondrial Complex I/IV activity quantification as determined by nmol/min/mg of protein in luminal breast cancer cell lines from panel a. […]
To measure mitochondrial complex activity, cell pellets were resuspended in assay buffer (125 mM sucrose, 0.1 mM EDTA, 25 mM Tris-HCl pH 7.5, 0.025% Lauryl-β-D-maltoside), and enzymatic activities were assayed with 0.1-0.4·10^6 cells/ml at 25° C. spectrophotometrically. NADH:HAR reductase activity of Complex I was measured as a decrease in absorption at 340 nm (ε340 nm=6.22 mM-1 cm-1) with 200 μM NADH, 1mM HAR and 1 mM KCN. Complex IV activity was measured as cytochrome oxidation at 550 nm (ε550 nm=21.5 mM-cm-) with 50 μM ferrocytochrome c. […] Protein content was determined with a BCA assay.

A further assay has as its system MCF7 xenografts. In words: Tumor growth (BLI) of MCF7 mammary fat pad xenografts treated with HT. Format: in vivo, mice. As to conditions: weekly fulvestrant, FIG. 2a. The source says: (Panel a) Representative tumor growth kinetics (BLI) of GFP+/Luciferase+MCF7 xenografts (n=10) treated with weekly fulvestrant once mammary fat pad tumors were established (after 3 months) which led to a period (4 months) of disease stability on HT (HTS) followed by exponential growth on HT (HTR). Representative H&E images of tumors and primary cultures from unsorted as well as FACS purified cancer cells (GFP+/Epcam+) and murine CAFs (GFP−/Epcam). Scale bar 20 μm. (Panel b) OXPHOS potential in tumor-derived cancer cells (panel a) was measured±HT (fulvestrant, 10 μM) by Seahorse. (Panel c) mtDNA/nDNA (human and murine) level as Fold change (log10scale) in cancer cells and mCAFs isolated from HTS and HTR disease (panel a). (Panel d) Percentage of metastatic lesions isolated by FACS from tumor-bearing mice (n=8/group) expressing murine mtDNA as determined by ND1 qPCR (2 ng of total DNA). Oxygen consumption rates (OCR) in murine-mtDNApos and ctrl HTR cells determined by Seahorse. (Panel e) Murine mitochondrial RNA expression (12 genes: ND1, ND2, COX2, ATP8, ATP6, COX3, ND3, ND4L, ND4, ND5, ND6, CytB) as fold change (logioscale) determined by qRT-PCR in HTR and HTS cells (panel a). […]
All cancer cell lines were engineered to express a GFP positive luciferase expression vector for in vitro and in vivo imaging studies. […] EV-number was determined by Nanosight. […]

In the case of `C[C@]12CC[C@@H]3c4ccc(O)cc4C[C@@H](CCCCCCCCC[S+]([O-])CCCC(F)(F)C(F)(F)F)[C@H]3[C@@H]1CC[C@@H]2O` (some centres unmarked) [fulvestrant], the “mitochondrial complex I and IV activity in cells treated with HT” value in assay [1] is reported as “reduced”. Also, the “growth pattern of tumors in tumor-bearing mice treated with HT” value in the assay on MCF7 xenografts is listed as “no growth for 4 months (HTS) followed by exponential growth (HTR)”.

Source of the values: US20190382850A1, “METHOD FOR IDENTIFYING MITOCHONDRIAL DNA IN EXTRACELLULAR VESICLES AND TREATMENT OF MTDNA-RELATED DISORDERS AND CANCER” (Memorial Sloan-Kettering Cancer Center, priority 2017, published 2019).
